System: K562 CRISPRi cells
Assay: Perturb-seq pooled growth measurement (sgRNA counts, growth phenotype γ, relative activity)
Format: cell-based, human
Settings: sequencing read counts; for Perturb-seq pooled growth sgRNA counts, d5: 5 days of growth (day seven after transduction); for Perturb-seq pooled growth sgRNA counts, d10: 10 days of growth (day twelve after transduction); for Perturb-seq pooled growth sgRNA counts, T0: T0 = day two after transduction
Source text: Finally, we sought to use intermediate-activity sgRNAs to explore relationships between expression levels of various genes and the resulting cellular phenotypes. To simultaneously measure gene expression levels and obtain rich phenotypes for a variety of sgRNA series, we used Perturb-seq, an experimental strategy that enables matched capture of the transcriptome and the identity of an expressed sgRNA for each individual cell in pools of cells (27, 31-33) (FIG. 12A). […] In addition to the single-cell transcriptomes, we measured bulk growth phenotypes conferred by sgRNAs in these cells.
To measure the growth rate defects conferred by each sgRNA for comparison with the transcriptional phenotypes, samples of 500,000 transduced cells were taken from the same transduced cell population used in the Perturb-seq experiment on days two, seven, and twelve after transduction. Genomic DNA was extracted using the Nucleospin Blood kit (Macherey-Nagel) and sgRNA amplicons were prepared as described previously and above (19), albeit with no genomic DNA digestion or gel purification, and sequenced on HiSeq 4000 as described above for the other screens. Growth phenotypes were calculated by comparing normalized sgRNA abundances at day seven and twelve to those at day two, as described above. […] Relative sgRNA activities measured at day seven (five days of growth) were used to assign sgRNA activities in further analysis.

## BCR_+_23523092.23-P1P2_04: sgRNA targeting BCR, GCGCGCGGAGCCCGTCTCAG, SEQ ID NO: 127 (listed as DNA, chemistry not fully specified)
  Perturb-seq pooled growth sgRNA counts, d5: 1660
  Perturb-seq pooled growth sgRNA counts, d10: 2119
  Perturb-seq pooled growth sgRNA counts, T0: 5355

## BCR_+_23523092.23-P1P2_05: sgRNA targeting BCR, GCGCGCGGCGCCCGTCTCAG, SEQ ID NO: 128 (listed as DNA, chemistry not fully specified)
  Perturb-seq pooled growth sgRNA counts, d5: 12165
  Perturb-seq pooled growth sgRNA counts, d10: 15537
  Perturb-seq pooled growth sgRNA counts, T0: 13439

## BCR_+_23523092.23-P1P2_07: sgRNA targeting BCR, GCGCGCGGGGCTCGTCTCAG, SEQ ID NO: 126 (listed as DNA, chemistry not fully specified)
  Perturb-seq pooled growth sgRNA counts, d5: 1744
  Perturb-seq pooled growth sgRNA counts, d10: 2183
  Perturb-seq pooled growth sgRNA counts, T0: 8081

## BCR_+_23523092.23-P1P2_13: sgRNA targeting BCR, GCGCGCGGGGCCCATCTCAG, SEQ ID NO: 130 (listed as DNA, chemistry not fully specified)
  Perturb-seq pooled growth sgRNA counts, d5: 5668
  Perturb-seq pooled growth sgRNA counts, d10: 7063
  Perturb-seq pooled growth sgRNA counts, T0: 4304

## BCR_+_23523092.23-P1P2_15: sgRNA targeting BCR, GCGCGCGGGGCCCGTCGCAG, SEQ ID NO: 129 (listed as DNA, chemistry not fully specified)
  Perturb-seq pooled growth sgRNA counts, d5: 6829
  Perturb-seq pooled growth sgRNA counts, d10: 8085
  Perturb-seq pooled growth sgRNA counts, T0: 5377

## CAD_+_27440280.23-P1P2_00: sgRNA targeting CAD, GGCTGGAGAGAAGCCGGGCG, SEQ ID NO: 20 (listed as DNA, chemistry not fully specified)
  Perturb-seq pooled growth sgRNA counts, d5: 2464
  Perturb-seq pooled growth sgRNA counts, d10: 785
  Perturb-seq pooled growth sgRNA counts, T0: 8671

## CAD_+_27440280.23-P1P2_03: sgRNA targeting CAD, GGCTGGTGAGAAGCCGGGCG, SEQ ID NO: 102 (listed as DNA, chemistry not fully specified)
  Perturb-seq pooled growth sgRNA counts, d5: 2087
  Perturb-seq pooled growth sgRNA counts, d10: 907
  Perturb-seq pooled growth sgRNA counts, T0: 7290

## CAD_+_27440280.23-P1P2_06: sgRNA targeting CAD, GGCTGGAGAGTAGCCGGGCG, SEQ ID NO: 104 (listed as DNA, chemistry not fully specified)
  Perturb-seq pooled growth sgRNA counts, d5: 4967
  Perturb-seq pooled growth sgRNA counts, d10: 4365
  Perturb-seq pooled growth sgRNA counts, T0: 6199

## CAD_+_27440280.23-P1P2_07: sgRNA targeting CAD, GGCTGGAGCGAAGCCGGGCG, SEQ ID NO: 103 (listed as DNA, chemistry not fully specified)
  Perturb-seq pooled growth sgRNA counts, d5: 6008
  Perturb-seq pooled growth sgRNA counts, d10: 4019
  Perturb-seq pooled growth sgRNA counts, T0: 13241

## CAD_+_27440280.23-P1P2_13: sgRNA targeting CAD, GGCTGGAGAGAAGCCTGGCG, SEQ ID NO: 105 (listed as DNA, chemistry not fully specified)
  Perturb-seq pooled growth sgRNA counts, d5: 17097
  Perturb-seq pooled growth sgRNA counts, d10: 19130
  Perturb-seq pooled growth sgRNA counts, T0: 11874

## CDC23_−_137548987.23-P1P2_00: sgRNA targeting CDC23, GACAGCCACCGGGACCATGG, SEQ ID NO: 18 (listed as DNA, chemistry not fully specified)
  Perturb-seq pooled growth sgRNA counts, d5: 757
  Perturb-seq pooled growth sgRNA counts, d10: 854
  Perturb-seq pooled growth sgRNA counts, T0: 8182

## CDC23_−_137548987.23-P1P2_02: sgRNA targeting CDC23, GACAGCTACCGGGACCATGG, SEQ ID NO: 98 (listed as DNA, chemistry not fully specified)
  Perturb-seq pooled growth sgRNA counts, d5: 832
  Perturb-seq pooled growth sgRNA counts, d10: 1192
  Perturb-seq pooled growth sgRNA counts, T0: 7014

## CDC23_−_137548987.23-P1P2_04: sgRNA targeting CDC23, GACAGCCAACGGGACCATGG, SEQ ID NO: 100 (listed as DNA, chemistry not fully specified)
  Perturb-seq pooled growth sgRNA counts, d5: 1646
  Perturb-seq pooled growth sgRNA counts, d10: 1646
  Perturb-seq pooled growth sgRNA counts, T0: 8019

## CDC23_−_137548987.23-P1P2_08: sgRNA targeting CDC23, GACAGCCATCGGGACCATGG, SEQ ID NO: 99 (listed as DNA, chemistry not fully specified)
  Perturb-seq pooled growth sgRNA counts, d5: 1531
  Perturb-seq pooled growth sgRNA counts, d10: 1710
  Perturb-seq pooled growth sgRNA counts, T0: 8986

## CDC23_−_137548987.23-P1P2_11: sgRNA targeting CDC23, GACAGCCACCGGGACCACGG, SEQ ID NO: 101 (listed as DNA, chemistry not fully specified)
  Perturb-seq pooled growth sgRNA counts, d5: 14320
  Perturb-seq pooled growth sgRNA counts, d10: 16682
  Perturb-seq pooled growth sgRNA counts, T0: 12707

## COX11_+_53045977.23-P1P2_00: sgRNA targeting COX11, GGCTCTGGCGTCCTGGATGG, SEQ ID NO: 141 (listed as DNA, chemistry not fully specified)
  Perturb-seq pooled growth sgRNA counts, d5: 11785
  Perturb-seq pooled growth sgRNA counts, d10: 6198
  Perturb-seq pooled growth sgRNA counts, T0: 8084

## COX11_+_53045977.23-P1P2_03: sgRNA targeting COX11, GGCTCTGTCGTCCTGGATGG, SEQ ID NO: 142 (listed as DNA, chemistry not fully specified)
  Perturb-seq pooled growth sgRNA counts, d5: 16852
  Perturb-seq pooled growth sgRNA counts, d10: 9184
  Perturb-seq pooled growth sgRNA counts, T0: 11251

## COX11_+_53045977.23-P1P2_04: sgRNA targeting COX11, GGCTCTGGCGCCCTGGATGG, SEQ ID NO: 143 (listed as DNA, chemistry not fully specified)
  Perturb-seq pooled growth sgRNA counts, d5: 8343
  Perturb-seq pooled growth sgRNA counts, d10: 5047
  Perturb-seq pooled growth sgRNA counts, T0: 5234

## COX11_+_53045977.23-P1P2_05: sgRNA targeting COX11, GGCTCTGGCGTCTTGGATGG, SEQ ID NO: 144 (listed as DNA, chemistry not fully specified)
  Perturb-seq pooled growth sgRNA counts, d5: 10766
  Perturb-seq pooled growth sgRNA counts, d10: 11496
  Perturb-seq pooled growth sgRNA counts, T0: 5205

## COX11_+_53045977.23-P1P2_10: sgRNA targeting COX11, GGCTCTGGCGTCCCGGATGG, SEQ ID NO: 145 (listed as DNA, chemistry not fully specified)
  Perturb-seq pooled growth sgRNA counts, d5: 8887
  Perturb-seq pooled growth sgRNA counts, d10: 11271
  Perturb-seq pooled growth sgRNA counts, T0: 5206

## DBR1_+_137893744.23-P1P2_00: sgRNA targeting DBR1, GTTTGCAGGAGTCTACACCC, SEQ ID NO: 78 (listed as DNA, chemistry not fully specified)
  Perturb-seq pooled growth sgRNA counts, d5: 9171
  Perturb-seq pooled growth sgRNA counts, d10: 3583
  Perturb-seq pooled growth sgRNA counts, T0: 13446

## DBR1_+_137893744.23-P1P2_01: sgRNA targeting DBR1, GATTGCAGGAGTCTACACCC, SEQ ID NO: 79 (listed as DNA, chemistry not fully specified)
  Perturb-seq pooled growth sgRNA counts, d5: 5512
  Perturb-seq pooled growth sgRNA counts, d10: 1824
  Perturb-seq pooled growth sgRNA counts, T0: 9446

## DBR1_+_137893744.23-P1P2_05: sgRNA targeting DBR1, GTTTGCAGGAGTGTACACCC, SEQ ID NO: 81 (listed as DNA, chemistry not fully specified)
  Perturb-seq pooled growth sgRNA counts, d5: 6705
  Perturb-seq pooled growth sgRNA counts, d10: 4748
  Perturb-seq pooled growth sgRNA counts, T0: 6569

## DBR1_+_137893744.23-P1P2_07: sgRNA targeting DBR1, GTTTGCAGGGGTCTACACCC, SEQ ID NO: 80 (listed as DNA, chemistry not fully specified)
  Perturb-seq pooled growth sgRNA counts, d5: 4894
  Perturb-seq pooled growth sgRNA counts, d10: 2550
  Perturb-seq pooled growth sgRNA counts, T0: 8500

## DBR1_+_137893744.23-P1P2_08: sgRNA targeting DBR1, GTTTGCAGTAGTCTACACCC, SEQ ID NO: 82 (listed as DNA, chemistry not fully specified)
  Perturb-seq pooled growth sgRNA counts, d5: 11651
  Perturb-seq pooled growth sgRNA counts, d10: 15989
  Perturb-seq pooled growth sgRNA counts, T0: 5326

Reference: patent US20220259593A1, “CONTROL OF MAMMALIAN GENE DOSAGE USING CRISPR” (The Regents of the University of California, priority 2019, published 2022)
